Data: patent publication US10874622B2, “Dual assembly nanoparticles” (BOARD OF REGENTS, THE UNIVERSITY OF TEXAS SYSTEM, priority 2015, dated 2020)

System: HeyA8 cells
Assay: In vitro anoikis (poly-HEMA plates, Annexin V-FITC/PI)
Assay type: cell-based, human
Settings: HeyA8 cells in suspension, 72 h
Method: In vitro anoikis. Cells were transfected with control or ZNF304 siRNA and transferred to 6-well tissue culture plates that were coated with polyhydroxyethylmethacrylate, and cells were cultured in these plates for 72 h at 37° C. in a 5% CO2 atmosphere. Cells were washed with PBS and were stained with Annexin V-FITC and PI solution (50 μg/ml) containing RNase A (25 μg/ml). After incubating the pellets for 30 min at 37° C., cell viability was analyzed by flow cytometry.
β1 integrin confers a survival advantage to tumor cells (Vachon, 2011). […] Therefore, the anoikis rates were examined at 24, 48, and 72 h in detached HeyA8 cells in vitro using polyhydroxyethylmethacrylate (poly-HEMA)-coated tissue culture plates that promote anchorage-independent cell growth (Sood et al., 2010).

Q: For “Control siRNA: non-silencing siRNA without homology to any known human mRNA, UUCUCCGAACGUGUCACGUUU (SEQ ID NO: 15) (listed as RNA, chemistry not given here)”, which rate of anoikis is on record?
A: Its rate of anoikis is 60%.
